The values below come from patent publication US20230174523A1, “BENZENESULFONAMIDE DERIVATIVES AS TRAP1 MODULATORS AND USES THEREOF” (Amathus Therapeutics, Inc., priority 2020, published 2023).

The target in this assay is T1, TRAP1 enzyme (Homo sapiens, UniProt Q12931).
T1 sequence (Q12931 60-704): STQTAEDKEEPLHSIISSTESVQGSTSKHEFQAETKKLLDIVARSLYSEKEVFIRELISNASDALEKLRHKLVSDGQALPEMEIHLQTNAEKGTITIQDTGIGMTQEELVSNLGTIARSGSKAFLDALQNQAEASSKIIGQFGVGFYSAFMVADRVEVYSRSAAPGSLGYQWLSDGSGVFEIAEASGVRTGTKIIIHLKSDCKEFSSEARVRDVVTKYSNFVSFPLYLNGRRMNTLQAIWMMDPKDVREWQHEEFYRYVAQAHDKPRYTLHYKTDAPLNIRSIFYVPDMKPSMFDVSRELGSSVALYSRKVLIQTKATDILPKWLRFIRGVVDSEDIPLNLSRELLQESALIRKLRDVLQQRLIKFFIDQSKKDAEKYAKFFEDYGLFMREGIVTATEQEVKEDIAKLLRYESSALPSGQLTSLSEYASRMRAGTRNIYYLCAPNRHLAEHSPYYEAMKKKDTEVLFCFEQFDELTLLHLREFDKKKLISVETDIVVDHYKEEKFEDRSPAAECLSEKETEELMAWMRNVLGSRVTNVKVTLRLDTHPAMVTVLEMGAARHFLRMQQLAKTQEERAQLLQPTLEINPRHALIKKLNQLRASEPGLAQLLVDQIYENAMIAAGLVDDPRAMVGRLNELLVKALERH
Kind of assay: ADP Glo assay of TRAP1 ATPase activity. The class given is biochemical. The settings on record: for EC50: TRAP1 ATPase activation, 150 nM Trap1, 20 μM ATP, geometric mean, read-out: ADP GLO DRC: GeoMean EC50; for Emax: read-out: ADP GLO DRC: Mean Emax. Here is the method: Potency of test compounds to modulate the ATPase activity of TRAP1 enzyme was evaluated using ADP Glo assay. The assay is based on quantification of the ADP generated from ATP in the ATPase reaction. The assay is performed in two steps: first, after the ATPase reaction, an equal volume of ADP-Glo™ Reagent is added to terminate the ATPase reaction and deplete the remaining ATP. Second, the Kinase Detection Reagent is added to simultaneously convert ADP to ATP and allow the newly synthesized ATP to be measured using a luciferase/luciferin reaction.
All the assays were carried out in a 384-well Proxiplate. The buffer used was 25 mM Pipes pH-7.5, 40 mM KCl, 0.05 mM MgCl2, 0.025% BSA, 0.316 mM EGTA, 0.003% Empigen, 0.01% Igepal. 150 nM Trap1 enzyme was incubated with various concentrations of the test compound (0.79 μM-100 μM) at 37° C. for 30 mins (except in blank wells). 20 μM ATP was added to each well to start the reaction. The plate was spun for 1 min at 1200 rpm and then incubated at 37° C. for 60 mins. 5 μl of ADP Glo reagent was added to all the wells and spun the plate for 1 min at 1200 rpm and kept it on a shaker at ambient temperature for 60 mins. 10 μl of kinase detection mix was added to all the wells and the plate was read for Luminescence at 495 nm. The amount of ADP released was estimated from ATP/ADP standard curve generated at the same experimental conditions. Emax (Maximal percent activation) and EC50 (concentration for half maximal activation) were estimated by fitting the dose response data to a sigmoidal curve fitting equation using Graphpad Prism software V. 8.

As for `COc1ccc(NC(=O)c2cnc(-c3ccccc3)[nH]2)cc1S(=O)(=O)Nc1c(C)cccc1C` [Compound 408], the EC50 was below 10 µM and the Emax lay within 200 to 300%.
The matching figures for `O=C(Nc1cccc(S(=O)(=O)Nc2ccc(Cl)cc2)c1)c1ncc(-c2ccccc2)o1` [Compound 438]: 10 to 20 µM and 123 to 159%.
The matching figures for `COc1ccc(NC(=O)c2cnc(-c3ccccc3)[nH]2)cc1S(=O)(=O)Nc1c(C)cc(Cl)cc1C` [Compound 443]: below 10 µM and 160 to 199%.
In the case of `COc1ccc(NC(=O)c2cnc(-c3ccccc3)[nH]2)cc1S(=O)(=O)N(CCCCCCN)c1ccc(Br)cc1` [Compound 454, N-(3-(N-(6-aminohexyl)-N-(4-bromophenyl)sulfamoyl)-4-methoxyphenyl)-2-phenyl-1H-imidazole-5-carboxamide], the EC50 was below 10 µM and the Emax was in the range of 160 to 199%.
The like results for `COc1ccc(NC(=O)c2cnc(-c3ccccc3)s2)cc1S(=O)(=O)Nc1c(C)cccc1C` [Compound 467] were, in that order, below 10 µM and 160 to 199%.
On to `COc1ccc(NC(=O)c2cnc(-c3ccccc3)s2)cc1S(=O)(=O)Nc1ccc(Cl)cc1` [Compound 468], for which the EC50 was below 10 µM and the Emax was in the range of 160 to 199%.
The matching figures for `COc1ccc(NC(=O)c2nnc(-c3ccccc3)[nH]2)cc1S(=O)(=O)Nc1ccc(Cl)cc1` [Compound 586, N-(3-(N-(4-chlorophenyl)sulfamoyl)-4-methoxyphenyl)-5-phenyl-4H-1,2,4-triazole-3-carboxamide]: 10 to 20 µM and 160 to 199%.
On to `COc1ccc(NC(=O)c2ocnc2C(C)C)cc1S(=O)(=O)Nc1ccc(Cl)cc1` [Compound 596], for which the EC50 was 10 to 20 µM and the maximal response (Emax) was 160 to 199%.
The matching figures for `O=C(Nc1ccc(F)c(S(=O)(=O)Nc2ccc(Cl)cc2)c1)c1ccccc1C(=O)c1ccccc1` [Compound 681]: below 10 µM and 160 to 199%.
The matching figures for `CCCn1cc(C(=O)Nc2ccc(F)c(S(=O)(=O)Nc3ccc(Cl)cc3)c2)cn1` [Compound 683]: 20 to 100 µM and 200 to 300%.
Take `Cn1ncc(I)c1C(=O)Nc1ccc(F)c(S(=O)(=O)Nc2ccc(Cl)cc2)c1` [Compound 689]: the EC50 was in the range of 20 to 100 µM and the Emax is 160 to 199%.
The matching figures for `O=C(Nc1ccc(F)c(S(=O)(=O)Nc2ccc(Cl)cc2)c1)c1cccc(-c2cncnc2)c1` [Compound 690]: below 10 µM and 160 to 199%.
Regarding `Cc1cc(Cl)nc(Cl)c1C(=O)Nc1ccc(F)c(S(=O)(=O)Nc2ccc(Cl)cc2)c1` [Compound 691], the EC50 fell in the range of 20 to 100 µM and the Emax was 123 to 159%.
The like results for `CC(C)(C)OC(=O)c1ccccc1C(=O)Nc1ccc(F)c(S(=O)(=O)Nc2ccc(Cl)cc2)c1` [Compound 694] were, in that order, 20 to 100 µM and 123 to 159%.
The matching figures for `CCOc1ncccc1C(=O)Nc1ccc(F)c(S(=O)(=O)Nc2ccc(Cl)cc2)c1` [Compound 704]: 10 to 20 µM and 200 to 300%.
With `O=C(Nc1ccc(F)c(S(=O)(=O)Nc2ccc(Cl)cc2)c1)c1nccnc1C(F)(F)F` [Compound 710], the EC50 was in the range of 10 to 20 µM and the Emax was in the range of 123 to 159%.
The matching figures for `Cc1nc(C(=O)Nc2ccc(F)c(S(=O)(=O)Nc3ccc(Cl)cc3)c2)c(C)s1` [Compound 716]: 20 to 100 µM and 123 to 159%.
The like results for `O=C(Nc1ccc(F)c(S(=O)(=O)Nc2ccc(Cl)cc2)c1)c1scnc1C1CC1` [Compound 724] were, in that order, 10 to 20 µM and 160 to 199%.
Turning to `Cc1onc(-c2ccccc2Cl)c1C(=O)Nc1ccc(F)c(S(=O)(=O)Nc2ccc(Cl)cc2)c1` [Compound 728], the EC50 fell in the range of 10 to 20 µM and the Emax was in the range of 123 to 159%.
The like results for `Cc1nccc(C(F)(F)F)c1C(=O)Nc1ccc(F)c(S(=O)(=O)Nc2ccc(Cl)cc2)c1` [Compound 734] were, in that order, 10 to 20 µM and 123 to 159%.
The like results for `Cc1nc2cc(C(=O)Nc3ccc(F)c(S(=O)(=O)Nc4ccc(Cl)cc4)c3)ccc2n1-c1ccccc1` [Compound 735] were, in that order, below 10 µM and 123 to 159%.
The matching figures for `Cc1cc(C(=O)Nc2ccc(F)c(S(=O)(=O)Nc3ccc(Cl)cc3)c2)c2c(C)noc2n1` [Compound 736]: 20 to 100 µM and 200 to 300%.
As to `O=C(Nc1ccc(F)c(S(=O)(=O)Nc2ccc(Cl)cc2)c1)c1cccc2c1OC(F)(F)O2` [Compound 737], the EC50 lay in the range of 10 to 20 µM and the Emax was 123 to 159%.
The like results for `Cc1oc(C)c(C(=O)Nc2ccc(F)c(S(=O)(=O)Nc3ccc(Cl)cc3)c2)c1C` [Compound 740] were, in that order, 10 to 20 µM and 123 to 159%.
Take `O=C(Nc1ccc(F)c(S(=O)(=O)Nc2ccc(Cl)cc2)c1)c1csc(N2CCOCC2)n1` [Compound 745]: the half-maximal effective concentration (EC50) lay within 20 to 100 µM and the Emax lay in the range of 123 to 159%.
The like results for `Cc1noc(C(C)C)c1C(=O)Nc1ccc(F)c(S(=O)(=O)Nc2ccc(Cl)cc2)c1` [Compound 751] were, in that order, 10 to 20 µM and 160 to 199%.
The like results for `Cc1ccc(Sc2ncccc2C(=O)Nc2ccc(F)c(S(=O)(=O)Nc3ccc(Cl)cc3)c2)cc1` [Compound 764] were, in that order, 10 to 20 µM and 123 to 159%.
The like results for `CCOc1ccsc1C(=O)Nc1ccc(F)c(S(=O)(=O)Nc2ccc(Cl)cc2)c1` [Compound 765] were, in that order, 20 to 100 µM and 123 to 159%.
For `O=C(Nc1ccc(F)c(S(=O)(=O)Nc2ccc(Cl)cc2)c1)c1cnccc1-c1ccccc1` [Compound 770], the EC50 lay within 20 to 100 µM and the Emax lay within 160 to 199%.
The matching figures for `O=C(Nc1ccc(F)c(S(=O)(=O)Nc2ccc(Cl)cc2)c1)c1cccc2cnccc12` [Compound 773]: 10 to 20 µM and 123 to 159%.
The matching figures for `COc1cc(C(=O)Nc2ccc(F)c(S(=O)(=O)Nc3ccc(Cl)cc3)c2)cc(Cl)c1OC` [Compound 775]: 10 to 20 µM and 123 to 159%.
For `Cc1cc(C(=O)Nc2ccc(F)c(S(=O)(=O)Nc3ccc(Cl)cc3)c2)n(Cc2ccc(F)cc2)n1` [Compound 776], the EC50 lay within 10 to 20 µM and the Emax fell in the range of 123 to 159%.
The like results for `O=C(Nc1ccc(F)c(S(=O)(=O)Nc2ccc(Cl)cc2)c1)c1cnccc1C(F)(F)F` [Compound 784] were, in that order, 20 to 100 µM and 123 to 159%.
In the case of `Cc1ncc(Br)cc1C(=O)Nc1ccc(F)c(S(=O)(=O)Nc2ccc(Cl)cc2)c1` [Compound 795], the EC50 fell in the range of 10 to 20 µM and the Emax lay within 160 to 199%.
The like results for `Cc1cc(C)n(Cc2cccc(C(=O)Nc3ccc(F)c(S(=O)(=O)Nc4ccc(Cl)cc4)c3)c2)n1` [Compound 807] were, in that order, below 10 µM and 160 to 199%.
The like results for `O=C(Nc1ccc(F)c(S(=O)(=O)Nc2ccc(Cl)cc2)c1)c1cnc(Cl)cc1Cl` [Compound 815] were, in that order, 10 to 20 µM and 123 to 159%.
The matching figures for `Cn1ncc(C(=O)Nc2ccc(F)c(S(=O)(=O)Nc3ccc(Cl)cc3)c2)c1-n1cccc1` [Compound 817]: 20 to 100 µM and 160 to 199%.
Regarding `CCS(=O)(=O)c1ccc(OC)c(C(=O)Nc2ccc(F)c(S(=O)(=O)Nc3ccc(Cl)cc3)c2)c1` [Compound 822], the EC50 fell in the range of 10 to 20 µM and the Emax was in the range of 160 to 199%.
The like results for `Cc1c(Br)cncc1C(=O)Nc1ccc(F)c(S(=O)(=O)Nc2ccc(Cl)cc2)c1` [Compound 826] were, in that order, 20 to 100 µM and 200 to 300%.
The like results for `N#Cc1ccc(C(=O)Nc2ccc(F)c(S(=O)(=O)Nc3ccc(Cl)cc3)c2)c(C(F)(F)F)n1` [Compound 827] were, in that order, 20 to 100 µM and 123 to 159%.
The like results for `CCc1noc(CC)c1C(=O)Nc1ccc(F)c(S(=O)(=O)Nc2ccc(Cl)cc2)c1` [Compound 830] were, in that order, 20 to 100 µM and 160 to 199%.
